Experimental data from ChEMBL document CHEMBL5316298, “Discovery of Amphiphilic Xanthohumol Derivatives as Membrane-Targeting Antimicrobials against Methicillin-Resistant Staphylococcus aureus” (J Med Chem, 2023).
Calls of active or inactive are those of the source. The calls are words filed in the database; no cut-off is given here.

Tests used:
Staphylococcus aureus [1] = test: Anti-MRSA activity against methicillin-resistant Staphylococcus aureus 3 incubated for 16 to 18 hrs in presence of 64 ug/ml phosphatidylglycerol by checkerboard broth dilution method (reference value: 1 ug/ml); type: functional; conditions: time 16-18 hrs
[2] = Toxicity in KM mouse infected with methicillin-resistant Staphylococcus aureus 3 assessed as histopathological abnormalities in heart at 5 to 10 mg/kg administered into skin infection site measured after 24 hrs by H and E staining based analysis; type: organism-based; conditions: in vivo, topical_or_ocular, dose 5-10 mg/kg
Cell membrane [3] = test: Disruption of membrane integrity in methicillin-resistant Staphylococcus aureus 3 assessed as appearance of wrinkled cell surface at 16 ug/ml incubated for 240 mins by SEM analysis; type: subcellular; conditions: dose 16.0 µg/ml
Cell membrane [4] = test: Disruption of membrane integrity in methicillin-resistant Staphylococcus aureus 3 assessed as increase in intense blue fluorescence at 8 times MIC incubated for 4 hrs by DAPI/PI staining based laser confocal microscopic analysis; type: subcellular
[5] = Toxicity in KM mouse assessed as effect on hemoglobin level at 20 mg/kg, sc administered into middle dorsum and measured after 24 hrs by routine blood test; type: organism-based; conditions: in vivo
Cell membrane [6] = test: Disruption of membrane integrity in methicillin-resistant Staphylococcus aureus 3 assessed as appearance of ruptured cell surface at 16 ug/ml incubated for 240 mins by SEM analysis; type: subcellular; conditions: dose 16.0 µg/ml
Staphylococcus aureus [7] = test: Antibacterial activity against methicillin-resistant Staphylococcus aureus clinical isolate 1 incubated for 16 to 18 hrs by CLSI-based microbroth dilution method; type: functional; conditions: time 16-18 hrs
Cell membrane [8] = test: Disruption of membrane integrity in methicillin-resistant Staphylococcus aureus 3 assessed as increase in red fluorescence of PI incubated for 2 hrs by SYTO 9/PI staining based flow cytometry analysis; type: subcellular; conditions: dose 4-64 µg/ml
Staphylococcus aureus [9] = test: Antibacterial activity against methicillin-resistant Staphylococcus aureus 3 infected in KM mouse assessed as appearance of smoother dorsal skin at 10 mg/kg administered into skin infection site measured after 24 hrs; type: functional, organism-based
[10] = Toxicity in KM mouse infected with methicillin-resistant Staphylococcus aureus 3 assessed as vacuolar degeneration in the kidneys at 5 to 10 mg/kg administered into skin infection site measured after 24 hrs by H and E staining based analysis; type: organism-based; conditions: in vivo, topical_or_ocular, dose 5-10 mg/kg
Staphylococcus aureus [11] = test: Antibacterial activity against methicillin-resistant Staphylococcus aureus clinical isolate 2 incubated for 16 to 18 hrs by CLSI-based microbroth dilution method; type: functional; conditions: time 16-18 hrs
[12] = Toxicity in KM mouse infected with methicillin-resistant Staphylococcus aureus 3 assessed as swelling of renal tubular epithelial cells with granular degeneration at 5 to 10 mg/kg administered into skin infection site measured after 24 hrs by H and E staining based analysis; type: organism-based; conditions: in vivo, topical_or_ocular, dose 5-10 mg/kg
Staphylococcus aureus [13] = test: Antibacterial activity against methicillin-resistant Staphylococcus aureus clinical isolate 5 incubated for 16 to 18 hrs by CLSI-based microbroth dilution method; type: functional; conditions: time 16-18 hrs
Staphylococcus aureus [14] = test: Anti-MRSA activity against methicillin-resistant Staphylococcus aureus 3 incubated for 16 to 18 hrs in presence of 0 to 64 ug/ml phosphatidylethanolamine by checkerboard broth dilution method; type: functional, organism-based; conditions: time 16-18 hrs
[15] = Toxicity in KM mouse assessed as pathological changes in liver at 20 mg/kg, sc administered into middle dorsum and measured after 24 hrs by H and E staining based analysis; type: organism-based; conditions: in vivo
[16] = Toxicity in KM mouse assessed as pathological changes in heart at 20 mg/kg, sc administered into middle dorsum and measured after 24 hrs by H and E staining based analysis; type: organism-based; conditions: in vivo
[17] = Toxicity in KM mouse infected with methicillin-resistant Staphylococcus aureus 3 assessed as kidney damage at 5 to 10 mg/kg administered into skin infection site measured after 24 hrs by H and E staining based analysis; type: organism-based; conditions: in vivo, topical_or_ocular, dose 5-10 mg/kg
[18] = Toxicity in KM mouse infected with methicillin-resistant Staphylococcus aureus 3 assessed as liver damage at 5 to 10 mg/kg administered into skin infection site measured after 24 hrs by H and E staining based analysis; type: organism-based; conditions: in vivo, topical_or_ocular, dose 5-10 mg/kg
[19] = Toxicity in KM mouse assessed as effect on WBC count at 20 mg/kg, sc administered into middle dorsum and measured after 24 hrs by routine blood test; type: organism-based; conditions: in vivo
Cell membrane [20] = test: Induction of membrane depolarization in methicillin-resistant Staphylococcus aureus 3 assessed as fold increase in fluorescence intensity at 8 to 16 ug/ml measured after 20 mins by DiSC35 dye-based fluorescence assay relative to control; type: subcellular; conditions: dose 8-16 µg/ml
Cell membrane [21] = test: Disruption of membrane integrity in methicillin-resistant Staphylococcus aureus 3 assessed as increase in red fluorescence at 8 times MIC incubated for 4 hrs by DAPI/PI staining based laser confocal microscopic analysis; type: subcellular
Staphylococcus aureus [22] = test: Bactericidal activity against methicillin-resistant Staphylococcus aureus 3 at 8 times MIC measured at 2 hrs by plate colony counting method; type: functional, organism-based
[23] = Toxicity in KM mouse infected with methicillin-resistant Staphylococcus aureus 3 assessed as multifocal enlargement of hepatocytes with cytoplasmic foamy swelling at 5 to 10 mg/kg administered into skin infection site measured after 24 hrs by H and E staining based analysis; type: organism-based; conditions: in vivo, topical_or_ocular, dose 5-10 mg/kg
[24] = Toxicity in KM mouse assessed as effect on mean corpuscular volume at 20 mg/kg, sc administered into middle dorsum and measured after 24 hrs by routine blood test; type: organism-based; conditions: in vivo
Staphylococcus aureus [25] = test: Bactericidal activity against methicillin-resistant Staphylococcus aureus 3 incubated for 6 hrs in presence of 50% sheep plasma; type: functional, organism-based
[26] = Toxicity in KM mouse assessed as effect on hematocrit level at 20 mg/kg, sc administered into middle dorsum and measured after 24 hrs by routine blood test; type: organism-based; conditions: in vivo
[27] = Toxicity in KM mouse infected with methicillin-resistant Staphylococcus aureus 3 assessed as histopathological abnormalities in spleen at 5 to 10 mg/kg administered into skin infection site measured after 24 hrs by H and E staining based analysis; type: organism-based; conditions: in vivo, topical_or_ocular, dose 5-10 mg/kg
Staphylococcus aureus [28] = test: Antibacterial activity against Staphylococcus aureus ATCC 29213 incubated for 16 to 18 hrs by CLSI-based microbroth dilution method; type: functional; conditions: time 16-18 hrs
Staphylococcus aureus [29] = test: Bactericidal activity against methicillin-resistant Staphylococcus aureus 3 at 4 times MIC by plate colony counting method; type: functional, organism-based; conditions: time 0-8 hrs, TDE = time-dependent effect
Staphylococcus aureus [30] = test: Antibacterial activity against methicillin-resistant Staphylococcus aureus 3 infected in KM mouse assessed as reduction in skin lesions/abscesses in subcutaneous tissue at 10 mg/kg administered into skin infection site measured after 24 hrs; type: functional, organism-based
Staphylococcus aureus [31] = test: Induction of drug resistance in Staphylococcus aureus ATCC 29213 assessed as increase in MIC at 0.5 times MIC measured for 20 passages; type: functional
Staphylococcus aureus [32] = test: Antibacterial activity against methicillin-resistant Staphylococcus aureus 3 infected in KM mouse assessed as reduction in abscesses on dorsal surface of skin at 5 mg/kg administered into skin infection site measured after 24 hrs; type: functional, organism-based
Cell membrane [33] = test: Disruption of membrane integrity in methicillin-resistant Staphylococcus aureus 3 assessed as increase in protein leakage at 1 to 8 times MIC incubated for 4 hrs by microspectrophotometer analysis; type: subcellular
Cell membrane [34] = test: Induction of membrane depolarization in methicillin-resistant Staphylococcus aureus 3 assessed as increase in fluorescence intensity at 8 to 16 ug/ml measured every 2 mins for 20 mins by DiSC35 dye-based fluorescence assay; type: subcellular; conditions: dose 8-16 µg/ml
Staphylococcus aureus [35] = test: Induction of ROS production in methicillin-resistant Staphylococcus aureus 3 assessed as increase in intracellular ROS level incubated for 40 mins by DCFH-DA dye based fluorescence analysis; type: functional, organism-based; conditions: dose 0-64 µg/ml
[36] = Hemolytic activity in sheep erythrocytes incubated for 1 hr by absorbance based analysis; type: toxicity, cell-based, Ovis aries, Erythrocyte

CCCN(CCC)C(=O)C[N+](C)(C)CCCCOc1ccc(/C=C/C(=O)c2c(OC)cc3c(c2O)C=CC(C)(C)O3)cc1.[Br-]
MIC (Staphylococcus aureus [1]): 32 µg/mL
Activity [2]: Non-Toxic
Activity (Cell membrane [3]): Active
Activity (Cell membrane [4]): Active
Activity [5]: Non-Toxic
Activity (Cell membrane [6]): Active
MIC (Staphylococcus aureus [7]): 2 µg/mL
Activity (Cell membrane [8]): Dose-Dependent Effect
Activity (Staphylococcus aureus [9]): Active
Activity [10]: Non-Toxic
MIC (Staphylococcus aureus [11]): 2 µg/mL
Activity [12]: Non-Toxic
MIC (Staphylococcus aureus [13]): 1 µg/mL
Activity (Staphylococcus aureus [14]): Active
Activity [15]: Non-Toxic
Activity [16]: Non-Toxic
Activity [17]: Non-Toxic
Activity [18]: Non-Toxic
Activity [19]: Non-Toxic
fold change (FC) (Cell membrane [20]): 6
Activity (Cell membrane [21]): Active
Activity (Staphylococcus aureus [22]): Active
Activity [23]: Non-Toxic
Activity [24]: Non-Toxic
Activity (Staphylococcus aureus [25]): Active
Activity [26]: Non-Toxic
Activity [27]: Non-Toxic
MIC (Staphylococcus aureus [28]): 1 µg/mL
Activity (Staphylococcus aureus [29]): Tde
Activity (Staphylococcus aureus [30]): Active
Activity (Staphylococcus aureus [31]): inactive
Activity (Staphylococcus aureus [32]): inactive
Activity (Cell membrane [33]): Dose-Dependent Effect
Activity (Cell membrane [34]): Active
Activity (Staphylococcus aureus [35]): Active
HC50 at 1 h [36]: 338 µg/mL
